Type in all cases: cell-based
The test system of experiment [1] is MCF7 cells (ATCC #HTB-22). The experiment can be described thus: Cellular growth inhibition assay, MCF7 cells purchased from ATCC. The following applies: Homo sapiens, MCF7, 144 h, Table 8-A; MCF7 cells purchased from ATCC; six days; CellTiter-Glo; read-out: GI50. The procedure:
Exemplary compounds were tested for the ability to inhibit the proliferation of MCF7 cells.
MCF7 cells (ATCC #HTB-22 or ECACC #86012803) were cultured in RPMI 1640 medium supplemented with 10% heat-inactivated fetal bovine serum, 1% pen-strep, and 0.2 U/ml insulin. Cells were seeded in 25 μL of RPMI 1640 medium supplemented with 10% heat-inactivated fetal bovine serum, 1% pen-strep, 0.2 U/ml insulin in poly-D-lysine treated, black clear-bottom 384-well plates at 225 cells/well for MCF7 cells purchased from ECACC or 1,500 cells/well for MCF7 cells purchased from ATCC. Following seeding, plates were spun at 300×g for 30 seconds and cultured at 37° C. with 5% CO2 in a humidified tissue culture incubator.
At 24 hours after seeding, compounds were titrated in 100% DMSO and diluted in RPMI 1640 medium supplemented with 10% heat-inactivate fetal bovine serum, 1% pen-strep, and 0.2 U/ml insulin. A 25 μL aliquot of the compound/media mixture was added to cells, bringing the total volume in each well to 50 μL. An equal volume of DMSO without compound was used as a negative control. After treatment, plates were spun at 300×g for 30 seconds, then cultured at 37° C. with 5% CO2 for six days in a humidified tissue culture incubator.
On Day 6 of treatment, cell viability was quantified with CellTiter-Glo 2.0 reagent (Promega). Plates were equilibrated to room temperature for 30 minutes, then 25 μL of CellTiter-Glo 2.0 reagent was added to cells, bringing the total volume in each well to 75 μL. After reagent was added, plates were mixed on a shaker for two minutes at 500 rpm and then incubated at room temperature for 10 minutes. Following incubation, plates were spun at 3,000×g for 30 seconds, sealed with an optical adhesive cover, and luminescence readings were measured with an EnVision Plate Reader.
Data was normalized to 0 luminescence for baseline. A four-parameter, non-linear regression curve fit was applied to dose-response data in GraphPad Prism data analysis software to determine the half maximal growth inhibitory concentration (GI50) for each compound.
On the technique in general: Cellular ATP, detected with luciferase, serves as a proxy for viable cell number.

The subject of experiment [2] is T-Rex 293 cells having increased expression of estrogen receptor alpha protein. Put plainly: Cellular growth inhibition assay, T-Rex 293 cells, (+) doxycycline. The following applies: T-REx-293, 72 h, 72 hours. The method, boiled down: (§1)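 Growth of a doxycycline-inducible ERα T-Rex 293 clone, induced or not with 3 ng/mL doxycycline, was followed for 72 h with test compound in hormone-depleted medium. CellTiter-Glo luminescence gave GI50.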

In experiment [3] the test system is T-Rex 293 cells lacking increased expression of estrogen receptor alpha protein. Put plainly: Cellular growth inhibition assay, T-Rex 293 cells, (−) doxycycline. The following applies: T-REx-293, 72 h, 72 hours. The method, boiled down: as §1
The mark [4] stands for this setting: Table 7-A, T-Rex 293 cells with doxycycline (increased ERα expression), CellTiter-Glo, read-out: (+) Dox GI50.
The mark [5] stands for this setting: Table 7-A, T-Rex 293 cells without doxycycline (lacking increased ERα expression), CellTiter-Glo, read-out: (−) Dox GI50.
[6] abbreviates: T-Rex 293 cells with doxycycline-induced ERα expression, CellTiter-Glo 2.0, read-out: (+) Dox TRex ERa (GI50).
The mark [7] stands for this setting: T-Rex 293 cells without doxycycline, CellTiter-Glo 2.0, read-out: (−) Dox TRex ERa (GI50).

Where two headings read alike, the source gives them in different places.

Broadly, the GI50 is the concentration giving 50% growth inhibition. `Cc1sc2c(c1C)C(c1ccc(N3CC(CN4CC(Oc5ccc([C@@H]6c7ccc(O)cc7CC[C@@H]6c6ccccc6)cc5)C4)C3)cc1)=N[C@@H](C)c1nnc(C)n1-2` [III-99]: the concentration for 50% growth inhibition (GI50) in experiment [1], in experiment [2] (setting [4]) and in experiment [3] (setting [5]) was 0.05 to 0.5 µM in each case.
Take `Cc1sc2c(c1C)C(c1ccc(N3CC4(C3)CC(O)(CN3CCN(c5ccc([C@@H]6c7ccc(O)cc7CC[C@@H]6c6ccccc6)cc5)CC3)C4)cc1)=N[C@@H](C)c1nnc(C)n1-2` [III-268]: the GI50 in experiment [1] is under 0.05 µM; in experiment [2] (setting [4]) it was under 0.05 µM; in experiment [3] (setting [5]) it was 0.5 to 2.5 µM.
Regarding `Cc1sc2c(c1C)C(c1ccc(C#CC3CC4(CCN(c5ccc([C@H]6c7ccc(O)cc7CC[C@H]6c6ccccc6)cc5)CC4)C3)cc1)=N[C@@H](Cc1ncco1)c1nnc(C)n1-2` [III-21], the GI50 in experiment [1] is 0.5 to 2.5 µM; in experiment [2] (setting [4]) it was 0.5 to 2.5 µM; in experiment [3] (setting [5]) it was over 2.5 µM.
With `Cn1cc(-c2cc(C(C)(C)O)ccc2Oc2ccc(N3CCC4(CCN(CCOc5ccc(C(=O)c6c(-c7ccc(O)cc7)sc7cc(O)ccc67)cc5)CC4)C3)cc2)c2cc[nH]c2c1=O` [I-35, 4-(2-(4-(8-(2-(4-(6-hydroxy-2-(4-hydroxyphenyl)benzo[b]thiophene-3-carbonyl)phenoxy)ethyl)-2,8-diazaspiro[4.5]decan-2-yl)phenoxy)-5-(2-hydroxypropan-2-yl)phenyl)-6-methyl-1,6-dihydro-7H-pyrrolo[2,3-c]pyridin-7-one], the GI50 in experiment [1], in experiment [2] (setting [6]) and in experiment [3] (setting [7]) was under 0.05 µM each time.
As for `Cc1sc2c(c1C)C(c1ccc(N3CCC(O)(CN4CCN(c5ccc(C6=C(c7ccc(F)cc7)CCCc7cc(C(=O)O)ccc76)cc5)CC4)CC3)cc1)=N[C@@H](C)c1nnc(C)n1-2` [IV-37], the GI50 in experiment [1] is under 0.05 µM; in experiment [2] (setting [4]), under 0.05 µM; in experiment [3] (setting [5]) it was 0.5 to 2.5 µM.
Consider `Cc1sc2c(c1C)C(c1ccc(N3CCC(O)(CC4CCN(c5ccc([C@@H]6c7ccc(O)cc7CC[C@@H]6c6ccccc6)cc5)CC4)CC3)cc1)=N[C@@H](Cc1ncco1)c1nnc(C)n1-2` [III-155], for which the GI50 was under 0.05 µM in experiment [1], under 0.05 µM in experiment [2] (setting [4]) and 0.05 to 0.5 µM in experiment [3] (setting [5]).
As for `Cc1sc2c(c1C)C(c1ccc(N3CC(CC4(O)CN(CC5CN(c6ccc(C7=C(c8ccccc8)CCCc8cc(C(=O)O)ccc87)cc6)C5)C4)C3)cc1)=N[C@@H](C)c1nnc(C)n1-2` [IV-42], the values for the GI50 in experiment [1], in experiment [2] (setting [4]) and in experiment [3] (setting [5]) were under 0.05 µM, under 0.05 µM and 0.05 to 0.5 µM, respectively.
On to `Cc1sc2c(c1C)C(c1ccc(OCCN3CCN(CCOc4ccc([C@H]5c6ccc(O)cc6CC[C@H]5c5ccccc5)cc4)CC3)cc1)=N[C@@H](Cc1ncco1)c1nnc(C)n1-2` [III-110], for which the GI50 in experiment [1], in experiment [2] (setting [4]) and in experiment [3] (setting [5]) was under 0.05 µM each time.
As to `Cc1sc2c(c1C)C(c1ccc(N3CC(CC4(O)CCN(CC5CN(c6ccc(C7=C(c8ccccc8)CCCc8cc(C(=O)O)ccc87)cc6)C5)CC4)C3)cc1)=N[C@@H](C)c1nnc(C)n1-2` [IV-29], the GI50 was under 0.05 µM in experiment [1], under 0.05 µM in experiment [2] (setting [4]) and 0.05 to 0.5 µM in experiment [3] (setting [5]).
Regarding `Cc1sc2c(c1C)C(c1ccc(N3CCN(CC4CCN(c5ccc([C@H]6c7ccc(O)cc7CC[C@H]6c6ccccc6)cc5)CC4)CC3)cc1)=N[C@@H](C)c1nnc(C)n1-2` (single isomer, unassigned) [I-37a], the GI50 in experiment [1] is 0.05 to 0.5 µM; in experiment [2] (setting [4]), 0.05 to 0.5 µM; in experiment [3] (setting [5]), 0.5 to 2.5 µM.
Regarding `Cc1sc2c(c1C)C(c1ccc(N3CC(C(=O)N4CCN(CC5CN(c6ccc([C@@H]7c8ccc(O)cc8CC[C@@H]7c7ccccc7)cc6)C5)CC4)C3)cc1)=N[C@@H](C)c1nnc(C)n1-2` [III-165], the 50% growth inhibitory concentration (GI50) is under 0.05 µM in experiment [1], under 0.05 µM in experiment [2] (setting [4]) and 0.05 to 0.5 µM in experiment [3] (setting [5]).
Regarding `Cc1sc2c(c1C)C(c1ccc(OCCOCCCN3CC[C@H](Oc4ccc(C5=C(c6ccc(Cl)cc6Cl)CCCc6cc(C(=O)O)ccc65)cc4)C3)cc1)=N[C@@H](C)c1nnc(C)n1-2` [I-32, 8-(2,4-dichlorophenyl)-9-(4-(((S)-1-(3-(2-(4-((S)-2,3,6,9-tetramethyl-6H-thieno[3,2-f][1,2,4]triazolo[4,3-a][1,4]diazepin-4-yl)phenoxy)ethoxy)propyl)pyrrolidin-3-yl)oxy)phenyl)-6,7-dihydro-5H-benzo[7]annulene-3-carboxylic acid], the GI50 in experiment [1] is 0.05 to 0.5 µM; in experiment [2] (setting [6]), under 0.05 µM; in experiment [3] (setting [7]) it was 0.5 to 2.5 µM.
As for `Cc1sc2c(c1C)C(c1ccc(N3CC(C[C@H]4CC[C@H](CN5CC(c6ccc(C7=C(c8ccccc8)CCCc8cc(C(=O)O)ccc87)cc6)C5)CC4)C3)cc1)=N[C@@H](C)c1nnc(C)n1-2` [IV-24], the GI50 in experiment [1] was under 0.05 µM; in experiment [2] (setting [4]), under 0.05 µM; in experiment [3] (setting [5]), 0.5 to 2.5 µM.
For the compound `Cc1sc2c(c1C)C(c1ccc(N[C@H]3CCCCN(CCOc4ccc([C@@H]5c6ccc(O)cc6CC[C@@H]5c5ccccc5)cc4)C3)cc1)=NC(Cc1ncco1)c1nnc(C)n1-2` (stereo partly drawn) [III-47], the concentration for 50% growth inhibition (GI50) in experiment [1], in experiment [2] (setting [4]) and in experiment [3] (setting [5]) was 0.05 to 0.5 µM throughout.
Consider `Cc1sc2c(c1C)C(c1ccc(N3CCCC4(CCN(CCOc5ccc([C@@H]6c7ccc(O)cc7CC[C@@H]6c6ccccc6)cc5)CC4)C3)cc1)=NC(Cc1ncco1)c1nnc(C)n1-2` (stereo partly drawn) [III-55], for which the figures for the GI50 in experiment [1], in experiment [2] (setting [4]) and in experiment [3] (setting [5]) were 0.05 to 0.5 µM, 0.05 to 0.5 µM and 0.5 to 2.5 µM, respectively.
For `CC1=C(c2c(F)cc(F)cc2F)[C@@H](c2ccc(C3CCN(CC4CCN(c5ccc(C6=N[C@@H](C)c7nnc(C)n7-c7sc(C)c(C)c76)cc5)CC4)CC3)cc2)Oc2ccc(O)cc21` [V-13], the GI50 in experiment [1], in experiment [2] (setting [4]) and in experiment [3] (setting [5]) was 0.05 to 0.5 µM each time.
Consider `Cc1sc2c(c1C)C(c1ccc(CC3CC4(CCN(CCOc5ccc(C(=O)c6c(-c7ccc(O)cc7)sc7cc(O)ccc67)cc5)CC4)C3)cc1)=N[C@@H](C)c1nnc(C)n1-2` [I-19, (S)-(6-hydroxy-2-(4-hydroxyphenyl)benzo[b]thiophen-3-yl)(4-(2-(2-(4-(2,3,6,9-tetramethyl-6H-thieno[3,2-f][1,2,4]triazolo[4,3-a][1,4]diazepin-4-yl)benzyl)-7-azaspiro[3.5]nonan-7-yl)ethoxy)phenyl)methanone], for which the 50% growth inhibitory concentration (GI50) in experiment [1] was under 0.05 µM; in experiment [2] (setting [6]) it was under 0.05 µM; in experiment [3] (setting [7]), 0.05 to 0.5 µM.
Turning to `Cc1sc2c(c1C)C(c1ccc(N3CC(CN4CCN(C(=O)C5CN(c6ccc([C@@H]7c8ccc(O)cc8CC[C@@H]7c7ccccc7)cc6)C5)CC4)C3)cc1)=N[C@@H](C)c1nnc(C)n1-2` [III-160], the GI50 in experiment [1] was under 0.05 µM; in experiment [2] (setting [4]) it was under 0.05 µM; in experiment [3] (setting [5]), 0.05 to 0.5 µM.
For the compound `Cc1sc2c(c1C)C(c1ccc(N3CC(CN4CC(CN5CC(c6ccc([C@@H]7c8ccc(O)cc8CC[C@@H]7c7ccccc7)cc6)C5)C4)C3)cc1)=N[C@@H](C)c1nnc(C)n1-2` [III-219], the concentration for 50% growth inhibition (GI50) in experiment [1] is 0.05 to 0.5 µM; in experiment [2] (setting [4]), under 0.05 µM; in experiment [3] (setting [5]), 0.05 to 0.5 µM.
Consider `Cc1sc2c(c1C)C(c1ccc(N3CCC(O)(CN4CCN(c5cc(F)c([C@@H]6c7ccc(O)cc7CC[C@@H]6c6ccccc6)cc5F)CC4)CC3)cc1)=N[C@@H](C)c1nnc(C)n1-2` [III-246], for which the values for the GI50 in experiment [1], in experiment [2] (setting [4]) and in experiment [3] (setting [5]) were under 0.05 µM, under 0.05 µM and 0.5 to 2.5 µM, respectively.

The record behind these values is patent US12558428B2, “Heterobifunctional compounds and their use in treating disease” (Halda Therapeutics OpCo, Inc., priority 2024, dated 2026).
